This note sets out measurements from patent US20040002450A1, “Y17 - isolated molecules comprising epitopes containing sulfated moieties, antibodies to such epitopes, and uses thereof” (priority 2000, published 2004).

Non-standard residues stand in square brackets, D forms with d. No end group written: not given here. sY = N[C@@H](Cc1ccc(OS(=O)(=O)O)cc1)C(=O)O

The subject of one test is KG-1 cells. The test is described as follows: AML KG-1 model in SCID/NOD mice. It counts as in vivo. As for the experimental part: The in vivo mouse model for human AML uses SCID/NOD mice (Jackson Laboratories) inoculated with KG-1 cells derived from a human AML cell line.
In a first experiment, NOD/SCID mice were pretreated with 100 mg/kg CYTOXAN®. Four days post CYTOXANT injection, KG-1 cells were injected intravenously into the tail vein of six groups of mice. (Table N, Groups 2 and 5-9). One group of mice (Table N, Group 1) was injected with PBS alone (control).
Beginning 19 days post KG-1 injection mice were treated with: CONY1, Doxorubicin, CONY1-Doxorubicin conjugate, or Mylotarg®. (Mylotarg® is a monoclonal antibody (anti CD33) conjugated chemically to calcheamicin recently approved by the FDA for treatment of AML patients age 60 and over in a first relapse.) Mice were treated once or three times per week for three weeks. One group (group 2) of KG-1 inoculated mice Were left untreated. (Table N). Two other groups of mice (groups 3 and 4) were injected with KG-1 cells that were previously incubated with CONY1 or 181-scFv (a negative, non-specific control antibody) in serum free RPMI containing 1% BSA at 4° C. for 1 h. The antibodies were used at a concentration of 0.25 mg scFv/10^8 cells (75 μg/mouse). Before injection into the mice the preincubated KG-1 cells were washed are resuspended in RPMI. The KG-1 cells in RPMI were inoculated into mice at a concentration of 75 μg scFv/0.2 ml RPMI per mouse. Group 3 mice were inoculated with KG-1+CONY1, and group 4 mice were inoculated with KG-1+181-scFv. (Table N). […]
Mice were sacrificed from 60 to 65 days post cell injection. Bone marrow and blood samples were analyzed by flow cytometry using mouse anti human CD34-FITC (IQP 144F) (or anti CD44-FITC (MCA89F, Serotec)) and Y1-Biotin/SAV-PE. […]
An additional experiment was performed in which SCID-NOD mice were i.v. injected with 3×10^4 MOLT-4 cells/mouse 5 days post treatment with cyclophosphamide. […] Bone marrow was extracted and analyzed by FACS analysis using a commercially available antiCD44 antibody for the detection of MOLT-4 cells in the mice bone marrow cell population.

For test [1], the system named is Y1 binding to washed platelets. The test is described as follows: Comparative FACS: effect of synthetic GPIbα peptides on Y1 binding to washed platelets. Set-up: species or system human. The method, then:
(§1) ELISA assays were developed to evaluate the effect of the GPIb derived synthetic peptides on the binding of Y1 to purified glycocalicin. In addition, FACS analysis using washed platelets was carried out. To evaluate the importance of sulfated tyrosine within the Y1 binding site of GPIb, a competitive binding FACS analysis was used. Y1-scFv at a concentration of 1 μg was preincubated with different peptides at concentrations of 2.5 and 200 μM. After a preincubation for 30 minutes at room temperature the mixture was added to a tube containing ˜10^7 washed platelets and the binding of Y1 to the washed platelets was assessed using polyclonal rabbit anti-scFv-PE. The inhibitory effect of the peptides compared to control binding (Y1 alone) was evaluated by measuring the residual binding of Y1 to washed platelets. The peptides and the results are described in Table 1 and are similar to results that were observed using the same peptides in an ELISA assay (Table B). In both assays, a control level of Y1 binding was determined, as follows. A polystyrene microtiter maxisorb plate was coated with (a) purified glycocalicin or (b) washed platelets. After extensive washing, 0.5 μg/well of Y1 was added. The plate was then incubated with rabbit anti-scFv followed by addition of anti rabbit —HRP (horse radish peroxidase) and HRP substrate. The level of anti rabbit —HRP binding was measured by the intensity of the color produced, and the level of anti rabbit —HRP binding correlates with the level of binding of anti Y1-scFv and the level of binding of Y1. The optical density was measured at A405. Each sample was assayed in duplicate, and the average was calculated.

Test [2] has as its system Y1 binding to purified glycocalicin. The test is described as follows: ELISA: effect of synthetic GPIbα peptides on Y1 binding to purified glycocalicin. Set-up: species or system human. Particulars: 0.25 μg/well Y1. As for the experimental part:
as §1, with “After extensive washing, 0.5 μg/well of Y1 was added.” left out
The effect of synthetic GPIbα peptides on Y1 binding to purified glycocalicin was evaluated by mixing varying concentrations of the peptides with a constant amount of Y1. After a preincubation for 30 minutes at room temperature, the mixture was added to a polystyrene microtiter maxisorb plate coated with purified glycocalicin, as described for evaluation of Y1 binding in the absence of peptides. The inhibitory effect of the peptides was evaluated by measuring the residual binding of Y1 to glycocalicin using rabbit anti Y1scFv and anti rabbit —HRP antibodies, as described for evaluation of Y1 binding in the absence of peptides. This study was performed with four peptides representing various subsets of the sequence 268 to 285 and a control peptide. Each peptide was tested at different concentrations: 200 μM, 25 μM, 2.5 μM, and 0.5 μM.
(In general: An ELISA detects its analyte on a solid surface through an enzyme-linked reagent.)

The test system of test [3] is scFv Y1 binding to glycocalicin. Description: Competitive binding ELISA of sulfated peptides (scFv Y1 binding to immobilized glycocalicin). Also noted: species or system human. Particulars: peptide 1, 10 and 100 μM, preincubated 10 minutes with scFv Y1. The method, then:
A competitive binding ELISA assay was used to assess the importance of the presence and position of sulfated tyrosines to the binding of peptides to Y1.
Glycocalicin was immobilized on a Maxisorb plate. scFv Y1 was preincubated with a peptide of interest for 10 minutes at three different concentrations (1, 10 and 100 μM) in order to observe a dose response. (Table 12). After preincubation, the mixture (Y1+peptide) was added to the plate, and binding of scFv Y1 was assessed using polyclonal rabbit anti-VL, which recognizes the VL chain of scFv Y1, followed by anti-rabbit-HRP. In mixtures in which the peptide bound to scFv Y1, a decrease in the binding of scFv Y1 to glycocalicin compared to control binding was observed.

As to `COc1cccc2c1C(=O)c1c(O)c3c(c(O)c1C2=O)C[C@@](O)(C(=O)CO)C[C@@H]3O[C@H]1C[C@H](N)[C@H](O)[C@H](C)O1` [Doxorubicin], the “percentage of KG-1 cells in bone marrow compared to untreated group 2 (in words)” value in the test on KG-1 cells (0.1 mg/kg free Doxorubicin, 3 times per week (group 6)) was “statistically significant (p<0.05) lower percentage”.
With “GDEGDTDLY*DY*Y*P (GDEGDTDL[sY]D[sY][sY]P) [P-3-S, residues 268-280 of GPIbα, Y* sulfated tyrosine]”, the results for the “Residual Binding of Y1 (% of baseline) (Geo Mean)” value in test [1] (peptide 2.5 μM) and in test [1] (peptide 200 μM) were 82 % of baseline and 26 % of baseline, respectively. For the same compound, the figures for the “Residual Binding of Y1 (% of baseline)” value in test [2] (peptide 0.5 μM), in test [2] (peptide 2.5 μM) and in test [2] (peptide 25 μM) were 80 % of baseline, 67 % of baseline and 21 % of baseline, respectively.
With “GDEGDTDLY*DY*Y*PEEDTE (GDEGDTDL[sY]D[sY][sY]PEEDTE) [P-1-S, residues 268-285 of GPIbα, Y* sulfated tyrosine]”, the entries for the “Residual Binding of Y1 (% of baseline) (Geo Mean)” value in test [1] (peptide 2.5 μM) and in test [1] (peptide 200 μM) were 41 % of baseline and 5 % of baseline, respectively. In addition, the “Residual Binding of Y1 (% of baseline)” value is listed as 89 % of baseline in test [2] (peptide 0.5 μM), 62 % of baseline in test [2] (peptide 2.5 μM), 25 % of baseline in test [2] (peptide 25 μM) and 0 % of baseline in test [2] (peptide 200 μM). Besides, the “inhibition of Y1 binding to glycocalicin (in words)” value in test [3] was “did inhibit”.
Take “GDEGDTDLYDYYPEEDTE [P-1, residues 268-285 of GPIbα, non-sulfated]”: the entries for the “Residual Binding of Y1 (% of baseline) (Geo Mean)” value in test [1] (peptide 2.5 μM) and in test [1] (peptide 200 μM) were 106 % of baseline and 87 % of baseline, respectively. The “Residual Binding of Y1 (% of baseline)” value in test [2] (peptide 0.5 μM) is recorded as 88 % of baseline; in test [2] (peptide 2.5 μM), 94 % of baseline; in test [2] (peptide 25 μM), 71 % of baseline; in test [2] (peptide 200 μM) it was 61 % of baseline.
In the case of “Mylotarg: monoclonal antibody (anti CD33) conjugated chemically to calcheamicin, FDA approved for AML”, the “KG-1 cells in bone marrow (in words)” value in the test on KG-1 cells (0.2 mg/kg, 1 time per week (group 9)) is on record as “free of KG 1 cells”. In addition, in the test with KG-1 cells (additional experiment, day 60, CONY1 scFv 75 μg/mouse three times/week, Mylotarg 7 μg/mouse once a week), the “development of the malignancy / prevalence of bone marrow cancer (in words)” value is “completely inhibited”.
Take “REEGRQHFFLLEGRSSYS [negative control peptide, reference compound]”: the “Residual Binding of Y1 (% of baseline) (Geo Mean)” value in test [1] (peptide 2.5 μM) was 96 % of baseline; in test [1] (peptide 200 μM), 119 % of baseline. Moreover, the “Residual Binding of Y1 (% of baseline)” value in test [2] (peptide 0.5 μM) is 121 % of baseline; in test [2] (peptide 2.5 μM) it was 100 % of baseline; in test [2] (peptide 25 μM), 89 % of baseline; in test [2] (peptide 200 μM) it was 85 % of baseline.
For the compound “TDLY*DY*Y*PEEDTE (TDL[sY]D[sY][sY]PEEDTE) [P-2-S, residues 273-285 of GPIbα, Y* sulfated tyrosine]”, the “Residual Binding of Y1 (% of baseline) (Geo Mean)” value is on record as 61 % of baseline in test [1] (peptide 2.5 μM) and 7 % of baseline in test [1] (peptide 200 μM). In addition, the “Residual Binding of Y1 (% of baseline)” value is on record as 78 % of baseline in test [2] (peptide 0.5 μM), 52 % of baseline in test [2] (peptide 2.5 μM) and 15 % of baseline in test [2] (peptide 25 μM).
